Results: US20240246935A1 (Plexium, Inc., priority 2021, published 2024)

Assays:
IKZF2 (Helios) = assay: IKZF2 reporter degradation assay (HEK 293T IKZF2-mNeonGreen reporter cell line); format: cell-based, human; conditions: 24 hour incubation; for IKZF2 % Degradation @ 1 μM: 1 μM compound
In short: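 HEK 293T lines stably expressing each IKZF-GGGGS×3-mNeonGreen-P2A-mScarlet reporter, 4000 cells/well in FluoroBrite medium, treated with compound (≤0.5% DMSO) for 24 h at 37 °C. Imaging measured percent mNeonGreen-positive cells, with mScarlet used for segmentation; DC50 from four-parameter logistic fit.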

IKZF3 (Aiolos) = assay: IKZF3 reporter degradation assay (HEK 293T IKZF3-mNeonGreen reporter cell line); format: cell-based, human; conditions: HEK 293T IKZF3 reporter cells, 24 hour incubation
Excerpt: (§1) Polycistronic plasmids were constructed for the mammalian expression of fluorescent reporter fusions of human transcription factors IKZF1 (Ikaros), IKZF2 (Helios), and IKZF3 (Aiolos). The respective protein sequences had their C-terminal end joined to a GGGGS linker repeated three times followed by mNeonGreen, P2A sequence, and mScarlet. The DNA sequences of the open reading frames are as follows:
(§2) IKZF1, IKZF2, and IKZF3 constructs were cloned into the UCOE Hygromycin expression vectors (Millipore Sigma). Reporter constructs were transfected using cationic lipid reagents into adherent HEK 293T cells and stable integrants were selected by treatment with 200 μg/mL hygromycin B. Clonal populations were obtained from the population of stable integrants either by limiting dilution or fluorescence activated cell sorting.
(§3) The clonal stable cell lines were maintained under constant 200 μg/mL hygromycin B selection while being passaged for use in the degradation assays. […] The fluorescence intensity of the IKZF1/2/3-mNeonGreen (FITC channel) and mScarlet (PE channel) reporters were routinely analyzed by flow cytometry to confirm consistent expression levels between experiments.
(§4) The IKZF1/IKZF2/IKZF3 degradation assays were carried out by harvesting the HEK 293T reporter cell lines and resuspending the cells in media formulated for reduced background fluorescence (FluoroBrite; Thermo Fisher). The respective cell lines were seeded at a density of 4000 cells/well into black-walled 384-well optical grade assay tissue culture plates. The cells were incubated overnight at 37° C. to allow for attachment to the assay plate. Dilutions of the compounds were prepared in DMSO from 10 mM compound stocks. The assay plates were treated with appropriate concentrations of the compounds by dispensing the DMSO dilutions in quadruplicate wells with an upper limit of 0.5% final DMSO.
(§5) After 24 hour incubation with the compounds, the assay plates were imaged on an ImageXpress Pico microscopy system (cells maintained at 37° C. during imaging) to obtain the fluorescent readouts. The assay plates were imaged in the FITC and Tetramethylrhodamine (TRITC) channels to obtain the mNeonGreen fluorescence intensity (reporter degradation data) and mScarlet fluorescence intensity (for cell segmentation). 293T-IKZF1 and 293T-IKZF3 reporter cell lines were imaged with exposures of 500 milliseconds (ms) for both FITC and TRITC channels, while the 293T-IKZF2 reporter cell line was imaged with exposures of 1000 ms for FITC and 1250 ms for TRITC. The resulting data was analyzed with Cell Reporter Xpress software using the 2-channel cell scoring analysis with a “percent positive” readout. The TRITC channel was selected for the “nuclei” segmentation with a threshold of 20 while the FITC channel was selected for the “Marker 1” segmentation and a threshold of 100 for the IKZF1 and IKZF3 reporter lines. […] The minimum segmentation width was set to 6 micrometers and the maximum segmentation width was set to 15 micrometers for all cell lines. The DCs calculations were determined by regression to best fit four-parameter logistic curves using GraphPad Prism.

IKZF1 (Ikaros) = assay: IKZF1 reporter degradation assay (HEK 293T IKZF1-mNeonGreen reporter cell line); format: cell-based, human; conditions: HEK 293T IKZF1 reporter cells, 24 hour incubation
Excerpt: as §1, §2, §3, §4, §5

GSPT1 = GSPT1 (Homo sapiens (Human), UniProt P15170+Q96SW2); assay: GSPT1 reporter degradation assay (HEK293 hGSPT1 HiBiT-tagged cells); format: cell-based; conditions: 24 hour incubation
Description: HEK293_hGSPT1_HiBiT-tagged cells were generated using CRISPR-Cas12a technology. Briefly, ˜400,000 HEK293 cells were transiently co-transfected with precomplexed ribonuclear proteins (RNPs) consisting of 80 pmol of crRNA (IDT), 62 pmol of Cas12a protein (IDT), 3 μg of ssODN donor (IDT; AltR® modifications), 78 pmol of electroporation enhancer (IDT), and 200 ng of pMaxGFP (Lonza). The transfection was performed via nucleofection (Lonza, 4D-Nucleofector X-unit) using solution P3 and program CM-130 in a (20 μL) cuvette. Five days post-nucleofection, cells were single-cell-sorted for GFP+(transfected) cells by FACs in 96-well plates and clonally selected. Clones were screened and verified for the desired modification via targeted deep sequencing using gene-specific primers with partial Illumina adapter overhangs as previously described. In brief, clonal cell pellets were harvested, lysed, and used to generate gene-specific amplicons with partial Illumina adapters in PCR #1. Amplicons were indexed in PCR #2 and pooled with other targeted amplicons for other loci to create sequence diversity. Additionally, 10% PhiX sequencing control V3 (Illumina) was added to the pooled amplicon library prior to running the sample on a Miseq Sequencer System (Illumina) to generate paired 2×250 bp reads. Samples were demultiplexed using the index sequences, fastq files were generated, and NGS analysis was performed using CRIS.py. Final clones were authenticated using the PowerPlex fusion system (Promega) and tested negative for mycoplasma by the MycoAlert™Plus mycoplasma detection kit (Lonza).
Editing construct sequences and screening primers are outlined below (sequence from 5′ to 3′). hGSPT1Cas12acrRNA, CAGE635.GSPT1.g1: […] (SEQ ID NO: 4); CAGE635.g1.anti.ssODN: ttcctcacagtattgtgcagggtcatcaagaaaatgctta[…] CAGCCGCTCACgtcCttctctggaaccagtttcagaacttttccaattgcaatggtcttacctagaaatgaaattttaa (HiBiT tag and silent blocking modifications to prevent Cas12a recutting after integration are in upper case) (SEQ ID NO: 5); CAGE635.hGSPT1.DS.F: […] (SEQ ID NO: 6); CAGE635.hGSPT1.DS.R: GTGAA GTAGGCTTCTGCAGTC (SEQ ID NO: 7).
The GSPT1 degradation assay was carried out by harvesting the HEK 293T reporter cell lines and resuspending the cells in media formulated for reduced background fluorescence (FluoroBrite; Thermo Fisher). The respective cell lines were seeded at a density of 8,000 cells/well into white-opaque 384-well optical grade assay tissue culture plates (Greiner 781080-20). The cells were incubated overnight at 37° C. to allow for attachment to the assay plate. Dilutions of the compounds were prepared in DMSO from 10 mM compound stocks. Test compounds were added in a 10-point dilution series (typically 10 μM to […]) using a TECAN D300e Digital Dispenser with an upper limit of 0.5% final DMSO. Plates were centrifuged at 320×g for 2 minutes at room temperature, and subsequently incubated at 37° C.
After 24 hour incubation with the compounds, the plates were allowed to cool to room temperature for 10 minutes. 30 μL of HiBiT lytic buffer+1:50 HiBiT substrate Solution were added to each well. Plates were centrifuged at 320×g for 2 minutes at room temperature and then incubated with shaking at room temperature for 10 minutes covered with foil. Plates were read on a CLARIOstar microplate reader (BMG LabTech), measuring at 450 nm (donor emission) and 610 nm or 630 nm (acceptor emission). The DC50 values were determined by regression to best fit four-parameter logistic curves using GraphPad Prism.

Chain of GSPT1 (P15170 whole entry): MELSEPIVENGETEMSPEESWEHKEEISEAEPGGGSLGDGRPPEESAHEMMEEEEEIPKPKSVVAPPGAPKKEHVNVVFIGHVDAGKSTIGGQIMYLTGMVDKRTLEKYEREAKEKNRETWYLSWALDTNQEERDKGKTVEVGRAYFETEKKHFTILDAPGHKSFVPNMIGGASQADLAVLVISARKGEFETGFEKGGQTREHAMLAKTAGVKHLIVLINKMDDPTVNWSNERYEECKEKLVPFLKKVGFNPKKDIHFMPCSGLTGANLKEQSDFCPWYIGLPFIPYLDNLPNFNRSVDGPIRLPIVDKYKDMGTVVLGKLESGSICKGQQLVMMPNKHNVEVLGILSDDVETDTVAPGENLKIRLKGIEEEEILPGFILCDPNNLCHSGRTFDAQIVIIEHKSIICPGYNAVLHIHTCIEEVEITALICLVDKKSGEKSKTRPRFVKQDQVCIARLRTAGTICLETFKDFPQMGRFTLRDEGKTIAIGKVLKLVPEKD
Chain of GSPT1 (Q96SW2 whole entry): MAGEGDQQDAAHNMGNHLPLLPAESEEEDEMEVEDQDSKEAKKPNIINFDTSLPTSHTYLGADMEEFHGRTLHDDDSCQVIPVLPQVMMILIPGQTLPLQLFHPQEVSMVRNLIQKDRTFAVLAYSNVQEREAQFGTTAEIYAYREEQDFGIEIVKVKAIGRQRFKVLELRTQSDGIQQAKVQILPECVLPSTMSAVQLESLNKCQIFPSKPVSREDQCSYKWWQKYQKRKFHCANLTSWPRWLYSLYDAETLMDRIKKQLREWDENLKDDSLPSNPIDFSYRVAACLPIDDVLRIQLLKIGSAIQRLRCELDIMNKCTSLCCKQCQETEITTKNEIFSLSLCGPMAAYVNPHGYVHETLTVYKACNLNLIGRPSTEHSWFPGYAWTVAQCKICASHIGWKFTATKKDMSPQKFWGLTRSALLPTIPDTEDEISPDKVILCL
Chain of GSPT1 (Q16531 whole entry partner): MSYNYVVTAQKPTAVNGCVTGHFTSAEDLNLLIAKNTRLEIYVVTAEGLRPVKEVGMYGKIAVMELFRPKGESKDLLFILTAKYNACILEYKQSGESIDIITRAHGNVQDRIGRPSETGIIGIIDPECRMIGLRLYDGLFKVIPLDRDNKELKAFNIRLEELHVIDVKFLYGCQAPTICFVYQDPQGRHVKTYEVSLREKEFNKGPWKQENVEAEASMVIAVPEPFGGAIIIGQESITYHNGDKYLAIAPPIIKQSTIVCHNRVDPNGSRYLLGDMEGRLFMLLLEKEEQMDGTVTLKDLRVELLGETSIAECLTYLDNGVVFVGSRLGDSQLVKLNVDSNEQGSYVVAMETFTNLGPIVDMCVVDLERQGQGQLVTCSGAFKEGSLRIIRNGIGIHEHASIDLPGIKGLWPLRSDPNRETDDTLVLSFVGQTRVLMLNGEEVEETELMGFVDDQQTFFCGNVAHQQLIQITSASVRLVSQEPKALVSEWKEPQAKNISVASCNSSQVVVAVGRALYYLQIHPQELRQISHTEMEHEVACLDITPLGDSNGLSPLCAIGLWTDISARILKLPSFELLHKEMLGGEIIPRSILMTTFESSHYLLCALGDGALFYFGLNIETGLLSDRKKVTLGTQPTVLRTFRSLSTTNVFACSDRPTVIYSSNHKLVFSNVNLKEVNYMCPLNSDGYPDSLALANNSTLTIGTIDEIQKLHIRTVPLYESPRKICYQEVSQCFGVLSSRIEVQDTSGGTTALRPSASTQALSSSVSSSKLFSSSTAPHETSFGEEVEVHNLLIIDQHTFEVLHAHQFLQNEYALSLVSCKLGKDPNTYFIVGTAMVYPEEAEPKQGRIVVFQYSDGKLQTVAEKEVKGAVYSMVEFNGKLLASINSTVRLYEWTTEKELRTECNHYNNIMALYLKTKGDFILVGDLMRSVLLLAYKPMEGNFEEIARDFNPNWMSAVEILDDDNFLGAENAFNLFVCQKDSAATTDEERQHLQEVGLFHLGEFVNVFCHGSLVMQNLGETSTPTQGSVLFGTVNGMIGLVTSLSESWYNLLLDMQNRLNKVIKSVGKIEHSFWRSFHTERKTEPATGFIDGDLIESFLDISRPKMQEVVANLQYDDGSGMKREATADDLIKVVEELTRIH

Compound | IKZF2 % Degradation @ 1 μM (IKZF2 (Helios); HEK 293T IKZF2 reporter cells) [%] | DC50 (IKZF2 (Helios); HEK 293T IKZF2 reporter cells) [µM] | DC50 (IKZF3 (Aiolos)) [µM] | DC50 (IKZF1 (Ikaros)) [µM] | DC50 (GSPT1) [µM] | IKZF2 % Degradation @ 1 μM (IKZF2 (Helios); HEK 293T IKZF2-mNeonGreen reporter) [%]
O=C1CCC(N2Cc3cc(O[C@H]4CCCC[C@@H]4N4CC(c5ccccc5F)C4)ccc3C2=O)C(=O)N1 (stereo in doubt) [Compound 27] | 82.1 | 0.005 | > 30 | > 30 |  | 
O=C1CCC(N2Cc3cc(O[C@H]4CCCC[C@@H]4N4CCC(c5ccccc5)C4)ccc3C2=O)C(=O)N1 (stereo partly drawn) [Compound 1, 3-(1-oxo-5-(((1S,2S)-2-(3-phenylpyrrolidin-1-yl)cyclohexyl)oxy)isoindolin-2-yl)piperidine-2,6-dione] | 79.9 | 0.024 | > 30 | > 30 | > 30 | 
O=C1CC[C@H](N2Cc3cc(O[C@H]4CCCC[C@@H]4N4CC(c5ccccc5)C4)ccc3C2=O)C(=O)N1 [Compound 10, (S)-3-(1-oxo-5-(((1S,2S)-2-(3-phenylazetidin-1-yl)cyclohexyl)oxy)isoindolin-2-yl)piperidine-2,6-dione] | 78.7 | 0.006 | > 30 | > 30 | > 30 | 
O=C1CCC(N2Cc3cc(O[C@@H]4CCCC[C@H]4N4CC(c5ccccc5)C4)ccc3C2=O)C(=O)N1 (stereo partly drawn) [Compound 11, 3-(1-oxo-5-(((1R,2R)-2-(3-phenylazetidin-1-yl)cyclohexyl)oxy)isoindolin-2-yl)piperidine-2,6-dione] |  | > 30 | > 30 | > 30 |  | 
O=C1CCC(N2Cc3cc(O[C@@H]4CCCC[C@@H]4N4CC(c5ccccc5)C4)ccc3C2=O)C(=O)N1 (stereo partly drawn) [Compound 13, 3-(1-oxo-5-(((1R,2S)-2-(3-phenylazetidin-1-yl)cyclohexyl)oxy)isoindolin-2-yl)piperidine-2,6-dione] |  | > 30 | > 30 | > 30 |  | 
O=C1CC[C@H](N2Cc3cc(O[C@@H]4CCCC[C@H]4N4CC(c5ccccc5)C4)ccc3C2=O)C(=O)N1 [Compound 14, (S)-3-(1-oxo-5-(((1R,2R)-2-(3-phenylazetidin-1-yl)cyclohexyl)oxy)isoindolin-2-yl)piperidine-2,6-dione] | 33.5 | 0.292 | > 30 | > 30 |  | 
O=C1CCC(N2Cc3cc(O[C@H]4CCCC[C@@H]4N4CC(c5ccccc5Cl)C4)ccc3C2=O)C(=O)N1 (stereo partly drawn) [Compound 15, 3-(5-(((1S,2S)-2-(3-(2-chlorophenyl)azetidin-1-yl)cyclohexyl)oxy)-1-oxoisoindolin-2-yl)piperidine-2,6-dione] | 78.9 | 0.004 | > 30 | > 30 |  | 
COc1ccccc1C1CN([C@H]2CCCC[C@@H]2Oc2ccc3c(c2)CN(C2CCC(=O)NC2=O)C3=O)C1 (stereo partly drawn) [Compound 19, 3-(5-(((1S,2S)-2-(3-(2-methoxyphenyl)azetidin-1-yl)cyclohexyl)oxy)-1-oxoisoindolin-2-yl)piperidine-2,6-dione] | 84.5 | 0.004 | > 30 | > 30 |  | 
O=C1CCC(N2Cc3cc(O[C@H]4CCCC[C@@H]4N4CC(c5ccc(F)c(F)c5)C4)ccc3C2=O)C(=O)N1 (stereo partly drawn) [Compound 23, 3-(5-(((1S,2S)-2-(3-(3,4-difluorophenyl)azetidin-1-yl)cyclohexyl)oxy)-1-oxoisoindolin-2-yl)piperidine-2,6-dione] | 79.2 | 0.005 | > 30 | > 30 | > 30 | 
O=C1CCC(N2Cc3cc(O[C@H]4CCCC[C@@H]4N4CC(c5ccc(-n6cccn6)cc5)C4)ccc3C2=O)C(=O)N1 (stereo partly drawn) [Compound 31, 3-(5-(((1S,2S)-2-(3-(4-(1H-pyrazol-1-yl)phenyl)azetidin-1-yl)cyclohexyl)oxy)-1-oxoisoindolin-2-yl)piperidine-2,6-dione] | 83.3 | 0.0005 | > 30 | > 30 |  | 
O=C1CCC(N2Cc3cc(O[C@H]4CCCC[C@@H]4N4CC(c5ccccc5)C4)ccc3C2=O)C(=O)N1 (stereo partly drawn) [Compound 127, 3-(1-oxo-5-(((1S,2S)-2-(3-phenylazetidin-1-yl)cyclohexyl)oxy)isoindolin-2-yl)piperidine-2,6-dione] |  |  |  |  | > 30 | 77.9
